The data set addresses ATP-dependent translocase ABCB1 (Homo sapiens, UniProt P08183). Description: TP_TRANSPORTER: inhibition of Doxorubicin and Vinblastine efflux in drug-resistant MCF-7 cells. Particulars: mcf7. It is filed as functional, cell-based.

ATP-dependent translocase ABCB1, sequence (P08183 whole entry): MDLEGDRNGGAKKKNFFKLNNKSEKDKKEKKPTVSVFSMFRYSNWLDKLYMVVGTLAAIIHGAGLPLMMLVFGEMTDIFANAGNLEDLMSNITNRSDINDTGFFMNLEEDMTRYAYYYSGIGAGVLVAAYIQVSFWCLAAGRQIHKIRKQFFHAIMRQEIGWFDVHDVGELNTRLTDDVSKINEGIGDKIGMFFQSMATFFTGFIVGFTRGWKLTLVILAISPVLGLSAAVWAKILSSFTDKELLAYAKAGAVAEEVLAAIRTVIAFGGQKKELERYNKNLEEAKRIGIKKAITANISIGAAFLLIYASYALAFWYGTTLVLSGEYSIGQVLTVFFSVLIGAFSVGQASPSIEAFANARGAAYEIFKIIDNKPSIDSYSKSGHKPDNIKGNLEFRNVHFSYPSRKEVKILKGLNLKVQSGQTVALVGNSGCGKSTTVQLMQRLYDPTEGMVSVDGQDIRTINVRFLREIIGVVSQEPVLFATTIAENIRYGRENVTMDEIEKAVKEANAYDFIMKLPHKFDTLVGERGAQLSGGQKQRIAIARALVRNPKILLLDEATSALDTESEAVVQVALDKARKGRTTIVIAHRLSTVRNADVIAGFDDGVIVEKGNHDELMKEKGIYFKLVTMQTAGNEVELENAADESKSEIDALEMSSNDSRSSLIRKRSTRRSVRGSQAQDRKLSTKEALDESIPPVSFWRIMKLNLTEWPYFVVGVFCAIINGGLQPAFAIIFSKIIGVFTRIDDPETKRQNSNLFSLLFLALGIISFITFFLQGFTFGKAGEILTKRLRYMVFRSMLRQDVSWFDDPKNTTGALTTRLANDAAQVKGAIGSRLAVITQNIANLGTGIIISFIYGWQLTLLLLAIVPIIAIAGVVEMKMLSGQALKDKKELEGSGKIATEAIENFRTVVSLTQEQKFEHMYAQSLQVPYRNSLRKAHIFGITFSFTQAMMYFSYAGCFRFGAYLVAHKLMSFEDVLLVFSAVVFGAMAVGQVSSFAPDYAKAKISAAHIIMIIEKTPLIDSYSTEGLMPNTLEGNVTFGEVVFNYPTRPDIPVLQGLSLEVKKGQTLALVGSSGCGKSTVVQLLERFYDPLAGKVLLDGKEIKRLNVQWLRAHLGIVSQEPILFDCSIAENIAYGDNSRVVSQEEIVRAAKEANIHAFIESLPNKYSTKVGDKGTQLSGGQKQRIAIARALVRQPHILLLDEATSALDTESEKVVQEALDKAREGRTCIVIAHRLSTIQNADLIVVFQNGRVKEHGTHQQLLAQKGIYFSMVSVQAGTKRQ

Regarding ROSEMARY EXTRACT, the Activity result is “inhibitor [+]”.

These data come from ChEMBL document CHEMBL2074156, “Inhibition of P-glycoprotein activity and reversal of multidrug resistance in vitro by rosemary extract” (Eur J Cancer, 1999).
